Assay results from patent publication US20070037823A1, “Substituted piperidine and piperazine derivatives as melanocortin-4 receptor modulators” (priority 2003, published 2007).

Molecular target: T1, hMC4-R (Homo sapiens, UniProt P32245)
T1 construct: expressed in transfected cells; host or cells: HEK293 cells
Assay: Functional cellular cAMP assay in HEK293 cells (fluorescence polarization)
Type: cell-based
Settings: HEK293 cells, cAMP production
Experimental: A functional cellular assay, based on competition between unlabeled cAMP and a fixed quantity of fluorescence labeled cAMP for a limited number of binding sites on a cAMP specific antibody, is used to discriminate melanocortin receptor agonists from antagonists by fluorescence polarization.
HEK293 cells expressing one of the human melanocortin receptors are transferred to 384 well microtiter plates, an appropriate amount of cAMP antibody is added, followed by the addition of different concentrations of the test compound to effect cAMP production. Cells are lysed and a fluorescence labeled cAMP conjugate is dispensed. The plate is read on a fluorescence polarization microplate reader and the amount of cAMP produced as a response to a test compound is compared to the production of CAMP resulting from stimulation with NDP-alpha-MSH. […]

T1 sequence (P32245 whole entry): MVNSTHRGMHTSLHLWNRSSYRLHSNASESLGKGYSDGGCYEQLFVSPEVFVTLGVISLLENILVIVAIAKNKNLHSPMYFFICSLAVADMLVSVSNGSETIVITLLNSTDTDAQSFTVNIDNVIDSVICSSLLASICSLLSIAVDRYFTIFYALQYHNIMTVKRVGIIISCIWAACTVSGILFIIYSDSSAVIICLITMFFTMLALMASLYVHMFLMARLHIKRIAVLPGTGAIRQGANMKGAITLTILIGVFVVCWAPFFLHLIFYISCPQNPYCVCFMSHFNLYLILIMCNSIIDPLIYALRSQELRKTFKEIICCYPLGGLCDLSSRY

Row | EC50 [µM] | Compound
1 | 3.1 | CC(C)(C)NC(=O)C1(C2CCCCC2)CCN(C[C@@H](Cc2ccc(Cl)cc2)NC(=O)[C@H]2Cc3ccccc3CN2)CC1.Cl [Example 2]
2 | 8 | CC(C)(C)NC(=O)C1(C2CCCCC2)CCN(CC[C@@H](Cc2ccc(Cl)cc2)NC(=O)[C@H]2Cc3ccccc3CN2)CC1.Cl [Example 5]

Same assay, conditions: cAMP compared to stimulation with NDP-alpha-MSH

Row | Compound | % activation functional assay
3 | CC(C)(C)NC(=O)C1(C2CCCCC2)CCN(CC[C@@H](Cc2ccc(Cl)cc2)NC(=O)[C@H]2Cc3ccccc3CN2)CC1.Cl [Example 5] | 52%
4 | CC(C)(C)NC(=O)C1(C2CCCCC2)CCN(C[C@H](Cc2ccc(Cl)cc2)NC(=O)c2cc(=O)c3ccccc3o2)CC1 [Example 28] | no activation
5 | CC(C)(C)NC(=O)C1(C2CCCCC2)CCN(C[C@@H](Cc2ccc(Cl)cc2)NC(=O)c2cc(=O)c3ccccc3o2)CC1 [Example 29] | no activation
6 | CC(C)(C)NC(=O)C1(C2CCCCC2)CCN(CC[C@H](Cc2ccc(Cl)cc2)NC(=O)c2cc(=O)c3ccccc3o2)CC1 [Example 31] | no activation

The next lines start with the values.

Row | % activation functional assay | Compound
7 | no activation | CC(C)(C)NC(=O)C1(C2CCCCC2)CCN(C[C@H](Cc2ccc(Cl)cc2)NC(=O)[C@H]2Cc3ccccc3CN2)CC1.Cl [Example 1]
8 | 80% | CC(C)(C)NC(=O)C1(C2CCCCC2)CCN(C[C@@H](Cc2ccc(Cl)cc2)NC(=O)[C@H]2Cc3ccccc3CN2)CC1.Cl [Example 2]
9 | no activation | CC(C)(C)NC(=O)C1(C2CCCCC2)CCN(C[C@@H](Cc2ccc(Cl)cc2)NC(=O)[C@@H]2Cc3ccccc3CN2)CC1.Cl [Example 3]
10 | no activation | CC(C)(C)NC(=O)C1(C2CCCCC2)CCN(CC[C@H](Cc2ccc(Cl)cc2)NC(=O)[C@H]2Cc3ccccc3CN2)CC1.Cl [Example 6]
11 | no activation | CC(C)(C)NC(=O)C1(C2CCCCC2)CCN(CC[C@@H](Cc2ccc(Cl)cc2)NC(=O)c2cc(=O)c3ccccc3o2)CC1 [Example 30]

Molecular target: T1, hMC4-R
Assay: Membrane binding assay, fluorescence labeled NDP-alpha-MSH competition (fluorescence polarization)
Settings: HEK293 cell membrane preparations
Experimental: A membrane binding assay is used to identify competitive inhibitors of fluorescence labeled NDP-alpha-MSH binding to HEK293 cell membrane preparations expressing human melanocortin receptors.
The test compound or unlabeled NDP-alpha-MSH is dispensed at varying concentrations to a 384 well microtiter plate. Fluorescence labeled NDP-alpha-MSH is dispensed at a single concentration, followed by addition of membrane preparations. The plate is incubated for 5 h at room temperature.
The degree of fluorescence polarization is determined with a fluorescence polarization microplate reader.

Row | Compound | IC50 [µM]
12 | CC(C)(C)NC(=O)C1(C2CCCCC2)CCN(CC[C@@H](Cc2ccc(Cl)cc2)NC(=O)[C@H]2Cc3ccccc3CN2)CC1.Cl [Example 5] | 2.5
13 | CC(C)(C)NC(=O)C1(C2CCCCC2)CCN(C[C@H](Cc2ccc(Cl)cc2)NC(=O)c2cc(=O)c3ccccc3o2)CC1 [Example 28] | 2.3
14 | CC(C)(C)NC(=O)C1(C2CCCCC2)CCN(C[C@@H](Cc2ccc(Cl)cc2)NC(=O)c2cc(=O)c3ccccc3o2)CC1 [Example 29] | 2.6
15 | CC(C)(C)NC(=O)C1(C2CCCCC2)CCN(CC[C@H](Cc2ccc(Cl)cc2)NC(=O)c2cc(=O)c3ccccc3o2)CC1 [Example 31] | 0.061

Further lines, results first:

Row | IC50 [µM] | Compound
16 | 0.7 | CC(C)(C)NC(=O)C1(C2CCCCC2)CCN(C[C@H](Cc2ccc(Cl)cc2)NC(=O)[C@H]2Cc3ccccc3CN2)CC1.Cl [Example 1]
17 | 0.72 | CC(C)(C)NC(=O)C1(C2CCCCC2)CCN(C[C@@H](Cc2ccc(Cl)cc2)NC(=O)[C@H]2Cc3ccccc3CN2)CC1.Cl [Example 2]
18 | 0.42 | CC(C)(C)NC(=O)C1(C2CCCCC2)CCN(C[C@@H](Cc2ccc(Cl)cc2)NC(=O)[C@@H]2Cc3ccccc3CN2)CC1.Cl [Example 3]
19 | 1 | CC(C)(C)NC(=O)C1(C2CCCCC2)CCN(CC[C@H](Cc2ccc(Cl)cc2)NC(=O)[C@H]2Cc3ccccc3CN2)CC1.Cl [Example 6]
20 | 2.1 | CC(C)(C)NC(=O)C1(C2CCCCC2)CCN(CC[C@@H](Cc2ccc(Cl)cc2)NC(=O)c2cc(=O)c3ccccc3o2)CC1 [Example 30]

Tested on: male Wistar rats
Assay: Spontaneous feeding paradigm (food intake)
Type: in vivo, rat
Settings: 10 mg/kg p.o.
Experimental: Food intake in rats is measured after i.p. or p.o. administration of the test compound (see e.g. Chen, A. S. et al. Transgenic Res April 2000; 9(2):145-54).
3-4 Hours following the onset of the light-phase, individually housed, male Wistar rats (200-300 g) receive an ip injection or po application of test compound or vehicle in an administration volume of 2 ml/kg. Following the administration of substances (1-30 mg/kg), a pre-weighed amount of normal laboratory chow is placed into the food hopper. Food remaining is measured by hand at 1-2 hour intervals for up to 8 hours. Differences in food intake between test-compound and vehicle-treated rats are evaluated.

Row | Compound | activity in the spontaneous feeding paradigm (increase in food intake)
21 | CC(C)(C)NC(=O)C1(C2CCCCC2)CCN(C[C@H](Cc2ccc(Cl)cc2)NC(=O)[C@H]2Cc3ccccc3CN2)CC1.Cl [Example 1] | active
22 | CC(C)(C)NC(=O)C1(C2CCCCC2)CCN(CC[C@H](Cc2ccc(Cl)cc2)NC(=O)c2cc(=O)c3ccccc3o2)CC1 [Example 31] | active

Same assay, conditions: 10 mg/kg p.o., 2 hours following administration, compared to vehicle control

Row | Compound | increase in cumulative food intake [%]
23 | CC(C)(C)NC(=O)C1(C2CCCCC2)CCN(C[C@H](Cc2ccc(Cl)cc2)NC(=O)[C@H]2Cc3ccccc3CN2)CC1.Cl [Example 1] | 2700
24 | CC(C)(C)NC(=O)C1(C2CCCCC2)CCN(CC[C@H](Cc2ccc(Cl)cc2)NC(=O)c2cc(=O)c3ccccc3o2)CC1 [Example 31] | 1100

Same assay, conditions: 10 mg/kg p.o., 4 hours following administration, compared to vehicle control

Row | Compound | increase in cumulative food intake [%]
25 | CC(C)(C)NC(=O)C1(C2CCCCC2)CCN(C[C@H](Cc2ccc(Cl)cc2)NC(=O)[C@H]2Cc3ccccc3CN2)CC1.Cl [Example 1] | 700
26 | CC(C)(C)NC(=O)C1(C2CCCCC2)CCN(CC[C@H](Cc2ccc(Cl)cc2)NC(=O)c2cc(=O)c3ccccc3o2)CC1 [Example 31] | 380

Same assay, conditions: 10 mg/kg p.o., 6 hours following administration, compared to vehicle control

Row | Compound | increase in cumulative food intake [%]
27 | CC(C)(C)NC(=O)C1(C2CCCCC2)CCN(C[C@H](Cc2ccc(Cl)cc2)NC(=O)[C@H]2Cc3ccccc3CN2)CC1.Cl [Example 1] | 175
